Measured values reported in patent US7812121B2 (priority 2006, dated 2010).
Entries after “also recorded” stand apart in the source; their conditions may differ. Values belong to the molecule of their own block, whether it stands above or below them. Ends that are not written are not given here.

Key:
[1] = SEC-SLS solution molecular weight / self-association; assay type: physicochemical; details: PBS (pH 7.5); for SEC-SLS elution / association state of peptides: 1 mg/ml
Method: Solution molecular weight of the peptides was measured by SEC-SLS. Briefly, peptide solutions in PBS (pH 7.5) at 0.4 to 2.0 mg/mL were fractionated over a Superdex peptide column (Amersham Pharmacia). The eluted peaks were monitored by static light scattering at 690 nm and solution molecular weight was determined at UV 280 nm using the Astra software package (Wyatt Inc.).

[2] = CD spectra secondary structure; assay type: physicochemical; details: 0.2 mg/mL peptide in PBS, 25° C.
Method: The secondary structures of tested peptides were determined using 0.2 mg/mL peptide solutions in PBS. Briefly, CD spectra were collected in triplicate at 1 nm intervals at 25° C. in 0.1 cm path length cell. Secondary structures were determined by fitting of the CD spectra using CD spectra software (CD Spectra Deconvolution software 2.1). All tested peptides contained peaks corresponding to the presence of alpha helices.

mutated human GLP-2R = biological target: T1, mutated human GLP-2R (Homo sapiens, UniProt O95838, E512D/G511A/L513V); assay: cAMP expression assay; assay type: cell-based; details: for EC50: Table 5, peptides 0.01 nM to 1.0 uM, 30-minute incubation at 37° C., read-out: cAMP in Vitro EC50 values; for less activity relative to wild type GLP-2: from cAMP EC50
T1 construct: expressed in transfected cells; host or cells: HEK 293E (clonal line, transfected)
T1 sequence (O95838 1-553 G511A/E512D/L513V): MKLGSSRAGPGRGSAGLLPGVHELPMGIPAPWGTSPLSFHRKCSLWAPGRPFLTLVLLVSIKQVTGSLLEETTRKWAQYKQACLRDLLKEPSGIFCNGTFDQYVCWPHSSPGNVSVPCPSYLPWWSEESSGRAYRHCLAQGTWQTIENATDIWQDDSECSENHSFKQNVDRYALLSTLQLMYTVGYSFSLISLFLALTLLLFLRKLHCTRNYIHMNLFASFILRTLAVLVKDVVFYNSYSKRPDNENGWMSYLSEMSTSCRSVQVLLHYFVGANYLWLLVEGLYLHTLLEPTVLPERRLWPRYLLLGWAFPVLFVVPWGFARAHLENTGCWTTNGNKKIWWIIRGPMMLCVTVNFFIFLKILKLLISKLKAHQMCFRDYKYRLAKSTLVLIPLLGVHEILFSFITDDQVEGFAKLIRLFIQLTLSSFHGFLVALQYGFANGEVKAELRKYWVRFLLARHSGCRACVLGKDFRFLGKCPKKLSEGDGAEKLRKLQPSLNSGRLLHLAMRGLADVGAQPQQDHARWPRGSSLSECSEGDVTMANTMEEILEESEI
From the text: To achieve this goal, a clonal cell line expressing a mutated human GLP-2R was generated by transfecting HEK 293E cells. The mutated human GLP-2R differs from the wild-type human GLP-2R (SEQ ID NO: 35) at three amino acid positions within the C-terminal intracellular region (SEQ ID NO: 36).
The CAMP expression was quantitated using the cAMP Direct Screen System (Cat. No. CSD 200, Applied Biosystems, Bedford, Mass.).
This assay was based on the cAMP Direct screen system from Applied Biosystems utilizing a cell line expressing mutated huGLP-2R in HEK 293E cells. Peptide at concentrations ranging from 0.01 nM to 1.0 uM in PBS with 0.5% BSA was added to ˜50,000 cells suspended in 96-well plates. After a 30-minute incubation at 37° C., Lysis Buffer followed by luminescence reagents (Applied Biosystems) was added according to the manufacturers' procedures (Applied Biosystems Luminescence protocol: cAMP-Screen Direct System). Luminescence was quantitated using a TopCount liquid scintillation analyzer (PerkinElmer), and data was processed using Softmax software (Molecular Devices Corporation).

[3] = Incubation with U937 cell lysate, SDS-PAGE; assay type: in vitro ADME; details: 24 hour test period, compared with A2G GLP-2 mimetibody (SEQ ID NO: 5)
Method: The purified Pro substitution variants were incubated with U937 cell lysate in the presence of CompleteMini protease inhibitor tablets (Cat. No. 1 836 153, Roche Applied Science, Indianapolis, Ind.) for 0, 12, or 24 hours. Afterwards, GLP-2 mimetibody variants were purified using Protein A beads and resolved on a SDS-PAGE gel.

normal mice = assay: Upper gastrointestinal transit, FITC-dextran method; assay type: in vivo; details: 30 minute test; for upper gastrointestinal transit: single injection 4 mg/kg 4 days before, 4 mg/kg
Method: On the day of study, upper gastrointestinal transit was measured using the FITC-dextran method. This method provides both, a measure of gastrointestinal transit and a readout of the pattern of distribution of the test meal along the gastrointestinal tract. Mice were fed a test meal of […] of FITC-dextran solution (5 mg/ml of 70,000 molecular weight dextran conjugated to fluorescein-isothiocyanate in 0.5% methylcellulose/deionized water) administered intragastrically by an 18 gauge curved feeding tube. Following oral administration of the FITC-dextran test meal, mice were returned to their home cages. It was shown that a 30 min test period was the optimum duration for detecting accelerated transit, while a 45 min test period was optimum for detecting delayed transit. Following the appropriate test period, mice were sacrificed by carbon dioxide exposure. The entire gastrointestinal tract from the lower esophageal sphincter to the terminal colon was removed. The bowel segments were opened along the mesenteric border. The tissue and luminal contents of the stomach, 10 equal segments of small intestine, the cecum, and 3 equal segments of colon were placed in individual Eppendorf tubes containing 1 ml of PBS. The tissue was vigorously mixed on a table-top vortex, and solid materials were pelleted by centrifugation. Aliquots of the cleared supernatant were read in duplicate on a 96-well fluorescence plate reader to quantify the magnitude of the fluorescent signal in each segment of bowel. These values were used to calculate the Geometric Center (GC), which is defined as the weighted average distribution of the fluorescent signal along the gastrointestinal tract: GC=Σ(% of total fluorescent signal per segment×segment number)/100. Higher values represent faster rates of transit on scale of 1 to 15. […] The mimetibody-induced shift in the distribution pattern of FITC-dextran is shown in the upper panel. […] The GC is calculated in the lower panel for statistical comparison.

CD1 mice = assay: Mucosal weight gain in small intestine, 10 days daily s.c. dosing; assay type: in vivo
From the text: Afterwards, the mice were euthanized and the small intestines were removed, flushed with saline, and processed as described below.
(§1) Specifically, 4 cm sections were harvested: (1) immediately distal to the pylorus (duodenum), (2) starting 2 cm distal of the ligament of Treitz (jejunum), and (3) immediately proximal to the cecum (ileum). The remaining small intestine from ˜6 cm distal of the ligament of Treitz to 4 cm proximal to the cecum was used to prepare mucosal scrapings. From the proximal and distal ends of the remnant, an equal distance was removed until a 15 cm section remained, the remnant was cut longitudinally, rinsed, and the mucosal layer was removed using the short end of a glass microscope slide. The wet weight of the intact intestinal segments and mucosa was measured.

mice = assay: Pharmacodynamics, dosing regimens, 11 day study; assay type: in vivo
From the text: as §1
The duration of the study was 11 days and tissue was processed as described in Example 4.

[4] = SEC-SLS solution molecular weight / self-association; assay type: physicochemical; details: purified mimetibody
[5] = Pharmacokinetics in mice (TRF assay of active mimetibody); assay type: in vivo
From the text: Blood was collected at different time points into citrate buffer containing protease inhibitors to minimize the possibility of ex vivo degradation and plasma was separated by centrifugation.
A time resolved fluorescence (TRF) assay was used to measure active mimetibody. Active mimetibody reflects the intact N-terminus of the peptide still attached to the Fc region of the mimetibody.

Molecule: GLP-1 [SEQ ID NO: 79, reference compound]
SEC-SLS elution / association state of peptides [1]: single peak with molecular weight within the expected monomer size | Helix [2]: 16.8% | Random coil [2]: 41.9%

SEC-SLS elution / association state of peptides [1]: mainly monomeric peptide | EC50 (mutated human GLP-2R): 3.5 nM | less activity relative to wild type GLP-2 (mutated human GLP-2R): 2 × | Random coil [2]: 41.4% | Helix ([2]; listed as GLP-2 (A2G, N16G, L17Q)): 17.0% | Helix ([2]; listed as GLP-2(A2G, N16G, L17Q)): ~17%
Molecule: HGDGSFSDEMNTILDGQAARDFINWLIQTKITD [SEQ ID NO: 55, GLP-2(A2G, N16G, L17Q)]

Molecule: SEQ ID NO: 44: A2G GLP-2 mimetibody Pro substitution variant, V2 GALVAVSP (HGDGSFSDEMNTILDNLAARDFINWLIQTKITDGSGGGSGALVAVSPESKYGPPCPPCP; Mimetibody)
degradation / resistance to proteolysis [3]: less degradation

SEC-SLS elution / association state of peptides [1]: mainly monomeric peptide | EC50 (mutated human GLP-2R): 5.2 nM | less activity relative to wild type GLP-2 (mutated human GLP-2R): 3 × | Random coil [2]: 41.8% | Helix ([2]; listed as GLP-2 (A2G, L17Q)): 16.9% | Helix ([2]; listed as GLP-2(A2G, L17Q)): ~17%
Molecule: HGDGSFSDEMNTILDNQAARDFINWLIQTKITD [SEQ ID NO: 54, GLP-2(A2G, L17Q)]

Molecule: SEQ ID NO: 43: A2G GLP-2 mimetibody Pro substitution variant, V2 GALVAVPS (HGDGSFSDEMNTILDNLAARDFINWLIQTKITDGSGGGSGALVAVPSESKYGPPCPPCP; cysteine pairing not given here; also: part of GLP-2 mimetibody)
degradation / resistance to proteolysis [3]: less degradation

Molecule: SEQ ID NO: 5: A2G GLP-2 mimetibody, IgG4 Hg-CH2-CH3 with S228P and P234A/L235A
upper gastrointestinal transit (normal mice; listed as A2G GLP-2 mimetibody): significant acceleration of intestinal transit | upper gastrointestinal transit (normal mice; listed as GLP-2 mimetibody): acceleration of upper gastrointestinal transit | Geometric Center (GC) (normal mice; single injection 4 days before, scale of 1 to 15, normal mice GC=6): 7.5 | increase in mucosal wet weight vs control mimetibody (CD1 mice; 0.8 mg/kg (0.26 nmole), p<0.0001): statistically significant | increase in mucosal wet weight vs control mimetibody (CD1 mice; 8 mg/kg (2.6 nmole), p<0.0004): statistically significant | mucosal wet weight (mucosal scrapings) (CD1 mice; female CD1 mice, daily s.c. for 10 days, dose response): dose dependant increase; also recorded: dose-dependent increase | effective in vivo dose lower than A2G GLP-2 peptide (CD1 mice; on a molar basis): 50 fold | mucosal weight difference to control mimetibody (mice; 4 mg/kg every day or every other day, 11 days): more pronounced | mucosal weight compared to control mimetibody (mice; 4 mg/kg once per week, 11 days): significantly increased mucosal weight | duodenum and jejunum section wet weight over control mimetibody (mice; 4 mg/kg, all regimens except the single dose): significant increase in weight | SEC-SLS association state of mimetibodies [4]: dimer | calculated half-life ([5]; CD1 mice, 3 mg/kg intravenously or subcutaneously, TRF active mimetibody): 26.5 h | half-life higher than that of the GLP-2 peptide ([5]; mimetibody in mice vs GLP-2 peptide in humans): more than 200 fold

association state ([1]; 0.4 mg/mL): monomer | SEC-SLS elution / association state of peptides [1]: overlapping dimer and monomer peaks | stimulation of cAMP expression (mutated human GLP-2R; clonal HEK 293E line expressing mutated human GLP-2R): stimulated cAMP expression | Helix [2]: 19.6% | Random coil [2]: 37.9%
Molecule: CC[C@H](C)[C@H](NC(=O)[C@H](Cc1ccccc1)NC(=O)[C@H](CC(=O)O)NC(=O)[C@H](CCCNC(=N)N)NC(=O)[C@H](C)NC(=O)[C@H](C)NC(=O)[C@H](CC(C)C)NC(=O)[C@H](CC(N)=O)NC(=O)[C@H](CC(=O)O)NC(=O)[C@H](CC(C)C)NC(=O)[C@@H](NC(=O)[C@@H](NC(=O)[C@H](CC(N)=O)NC(=O)[C@H](CCSC)NC(=O)[C@H](CCC(=O)O)NC(=O)[C@H](CC(=O)O)NC(=O)[C@H](CO)NC(=O)[C@H](Cc1ccccc1)NC(=O)[C@H](CO)NC(=O)CNC(=O)[C@H](CC(=O)O)NC(=O)[C@H](C)NC(=O)[C@@H](N)Cc1c[nH]cn1)[C@@H](C)O)[C@@H](C)CC)C(=O)N[C@@H](CC(N)=O)C(=O)N[C@@H](Cc1c[nH]c2ccccc12)C(=O)N[C@@H](CC(C)C)C(=O)N[C@H](C(=O)N[C@@H](CCC(N)=O)C(=O)N[C@H](C(=O)N[C@@H](CCCCN)C(=O)N[C@H](C(=O)N[C@H](C(=O)N[C@@H](CC(=O)O)C(=O)O)[C@@H](C)O)[C@@H](C)CC)[C@@H](C)O)[C@@H](C)CC [SEQ ID NO: 1, GLP-2, reference compound]

B1: SEQ ID NO: 4: A2S GLP-2 mimetibody, IgG4 Hg-CH2-CH3 with S228P and P234A/L235A (protein)
chain: HSDGSFSDEMNTILDNLAARDFINWLIQTKITDGSGGGSGTLVTVSSESKYGPPCPPCPAPEAAGGPSVFLFPPKPDTLMISRTPEVTCVVVDVSQEDPEVQFNWYVDGVEVHNAKTKPREEQFNSTYRVVSVLTVLHQDWLNGKEYKCKVSNKGLPSSIEKTISKAKGQPREPQVYTLPPSQEEMTKNQVSLTCLVKGFYPSDIAVEWESNGQPENNYKTTPPVLDSDGSFFLYSRLTVDKSRWQEGNVFSCSVMHEALHNHYTQKSLSLSLGK
modifications: Mimetibody
SEC-SLS association state of mimetibodies [4]: dimer
